US11208400B2, “Substituted 6-(1H-pyrazol-1-yl)pyrimidin-4-amine derivatives and uses thereof” (Bayer Aktiengesellschaft, priority 2016, dated 2021)

Target: T1, human Npt2a (Homo sapiens, UniProt Q06495)
T1 construct: expressed in transfected cells
T1 sequence (Q06495 1-639): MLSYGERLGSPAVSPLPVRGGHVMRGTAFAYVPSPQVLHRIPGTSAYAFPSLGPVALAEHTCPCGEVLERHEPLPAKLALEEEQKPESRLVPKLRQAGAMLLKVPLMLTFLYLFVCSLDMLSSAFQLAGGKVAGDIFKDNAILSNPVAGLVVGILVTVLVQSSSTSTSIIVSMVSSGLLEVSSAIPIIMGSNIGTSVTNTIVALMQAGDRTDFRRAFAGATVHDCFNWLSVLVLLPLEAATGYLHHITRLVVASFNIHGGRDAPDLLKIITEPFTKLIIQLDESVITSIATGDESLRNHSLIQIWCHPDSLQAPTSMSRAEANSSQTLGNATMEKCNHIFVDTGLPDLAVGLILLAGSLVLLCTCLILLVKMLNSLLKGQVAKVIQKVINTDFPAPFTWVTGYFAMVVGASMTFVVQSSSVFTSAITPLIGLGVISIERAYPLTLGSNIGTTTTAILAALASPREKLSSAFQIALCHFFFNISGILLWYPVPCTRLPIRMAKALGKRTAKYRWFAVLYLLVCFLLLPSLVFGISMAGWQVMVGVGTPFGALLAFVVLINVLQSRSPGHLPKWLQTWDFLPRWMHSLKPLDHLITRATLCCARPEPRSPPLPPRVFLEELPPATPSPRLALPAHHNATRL
Test: Npt2a activity cell based assay, membrane potential dye, CHO T-REx hNpt2a cells
Conditions: doxycycline-induced, depolarization by sodium phosphate influx, average or median values if tested more than once
Summary of the method: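 Doxycycline-induced (0.5 μg/mL, 24 h) CHO T-REx cells were loaded with membrane potential dye in sodium-free NHE buffer (pH 7.4) and exposed to compound (50 μM–1 nM, 5 min, room temperature).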

First: CCOC(=O)c1c(C)nn(-c2cc(Nc3c(C)nn(-c4ccc(C#N)cc4)c3C)ncn2)c1C [Example 219, ethyl 1-(6-{[1-(4-cyanophenyl)-3,5-dimethyl-1H-pyrazol-4-yl]amino}pyrimidin-4-yl)-3,5-dimethyl-1H-pyrazole-4-carboxylate]
Second: CCc1c(-c2ccc(C#N)cc2)nn(CC2CC2)c1Nc1cc(-n2nc(C)c(C(C)=O)c2C)ncn1 [Example 202, 4-[5-{[6-(4-acetyl-3,5-dimethyl-1H-pyrazol-1-yl)pyrimidin-4-yl]amino}-1-(cyclopropylmethyl)-4-ethyl-1H-pyrazol-3-yl]benzonitrile]
The IC50 of the first is lower: less than 1.6 nM for the first, 13 nM for the second.

First: CCc1c(Nc2cc(-n3nc(C)c(CC(=O)OC(C)C)c3C)ncn2)nn(C)c1-c1ccc(F)cc1 [Example 440, propan-2-yl [1-(6-{[4-ethyl-5-(4-fluorophenyl)-1-methyl-1H-pyrazol-3-yl]amino}pyrimidin-4-yl)-3,5-dimethyl-1H-pyrazol-4-yl]acetate]
Second: CCc1c(Nc2cc(-n3nc(C)c(-c4nnc(C)o4)c3C)ncn2)nn(C)c1-c1ccc(F)cc1 [Example 271, 6-[3,5-dimethyl-4-(5-methyl-1,3,4-oxadiazol-2-yl)-1H-pyrazol-1-yl]-N-[4-ethyl-5-(4-fluorophenyl)-1-methyl-1H-pyrazol-3-yl]pyrimidin-4-amine]
The IC50 of the first is 2.5-fold higher: 97 nM for the first, 39 nM for the second. The second is the more potent here.

First: Cc1nn(-c2cc(Nc3c(C)c(-c4ccc(F)cc4)nn3CC3CC3)ncn2)c2c1C(=O)CC2 [Example 394, 1-(6-{[1-(cyclopropylmethyl)-3-(4-fluorophenyl)-4-methyl-1H-pyrazol-5-yl]amino}pyrimidin-4-yl)-3-methyl-5,6-dihydrocyclopenta[c]pyrazol-4(1H)-one]
Second: Cc1nn(-c2cc(Nc3c(C)c(-c4ccc(F)cc4)nn3CC3CC3)ncn2)c(C)c1CC(C)(C)O [Example 302, 1-[1-(6-{[1-(cyclopropylmethyl)-3-(4-fluorophenyl)-4-methyl-1H-pyrazol-5-yl]amino}pyrimidin-4-yl)-3,5-dimethyl-1H-pyrazol-4-yl]-2-methylpropan-2-ol]
The IC50 of the first is 7.9-fold higher: 71 nM for the first, 9 nM for the second.

First: CCc1c(-c2ccc(F)cc2)nn(CC2CC2)c1Nc1cc(-n2nc(C)c3ccncc32)ncn1 [Example 205, N-[1-(cyclopropylmethyl)-4-ethyl-3-(4-fluorophenyl)-1H-pyrazol-5-yl]-6-(3-methyl-1H-pyrazolo[3,4-c]pyridin-1-yl)pyrimidin-4-amine]
Second: CCc1c(-c2ccc(C#N)cc2)nn(CC2CC2)c1Nc1cc(-n2nc(C)c(Cl)c2C)ncn1 [Example 157, 4-[5-{[6-(4-chloro-3,5-dimethyl-1H-pyrazol-1-yl)pyrimidin-4-yl]amino}-1-(cyclopropylmethyl)-4-ethyl-1H-pyrazol-3-yl]benzonitrile]
The IC50 of the first is 3.3-fold higher: 20 nM for the first, 6 nM for the second.

Compared with `Cc1nn(-c2cc(Nc3nn(C)c(-c4ccc(F)cc4)c3C)ncn2)c(C)c1C(C)(C)O` [Example 109, 2-[1-(6-{[5-(4-fluorophenyl)-1,4-dimethyl-1H-pyrazol-3-yl]amino}pyrimidin-4-yl)-3 5-dimethyl-1H-pyrazol-4-yl]propan-2-ol], `Cc1nn(-c2cc(Nc3c(C)c(-c4ccc(F)cc4F)nn3C)ncn2)c(C)c1C(C)(C)O` [Example 378, 2-[1-(6-{[3-(2,4-difluorophenyl)-1,4-dimethyl-1H-pyrazol-5-yl]amino}pyrimidin-4-yl)-3,5-dimethyl-1H-pyrazol-4-yl]propan-2-ol] is 51-fold higher in IC50: 50.3 nM for the first, 2550 nM for the second. The first is the more potent here.

Going from `Cc1cc(C)n(-c2cc(Nc3nn(C)c(-c4ccc(C(F)F)cc4)c3C)ncn2)n1` [Example 409, N-{5-[4-(difluoromethyl)phenyl]-1,4-dimethyl-1H-pyrazol-3-yl}-6-(3,5-dimethyl-1H-pyrazol-1-yl)pyrimidin-4-amine] to `Cc1cc(C(F)F)n(-c2cc(Nc3nn(C)c(-c4ccc(C#N)cc4)c3C)ncn2)n1` [Example 236, 4-[3-({6-[5-(difluoromethyl)-3-methyl-1H-pyrazol-1-yl]pyrimidin-4-yl}amino)-1,4-dimethyl-1H-pyrazol-5-yl]benzonitrile], the IC50 falls from 140 nM to 3 nM (47-fold).

Compared with `Cc1cc(C(F)F)n(-c2cc(Nc3c(C)c(-c4ccc(C#N)cc4)nn3CC3CC3)ncn2)n1` [Example 142, 4-[1-(cyclopropylmethyl)-5-{(6-[5-(difluoromethyl)-3-methyl-1H-pyrazol-1-yl]pyrimidin-4-yl}amino)-4-methyl-1H-pyrazol-3-yl]benzonitrile], `Cc1cc(C(F)F)n(-c2cc(Nc3c(Cl)c(-c4ccc(C#N)cc4)nn3CC3CC3)ncn2)n1` [Example 445, 4-[4-chloro-1-(cyclopropylmethyl)-5-({6-[5-(difluoromethyl)-3-methyl-1H-pyrazol-1-yl]pyrimidin-4-yl}amino)-1H-pyrazol-3-yl]benzonitrile] is 4-fold higher in IC50: 3 nM for the first, 12 nM for the second. The first is the more potent here.

First: Cc1nn(-c2cc(Nc3nn(C)c(-c4ccc(C#N)cc4)c3C)ncn2)c(C)c1Cl [Example 196, 4-(3-{[6-(4-chloro-3,5-dimethyl-1H-pyrazol-1-yl)pyrimidin-4-yl]amino}-1,4-dimethyl-1H-pyrazol-5-yl)benzonitrile]
Second: COC(C)c1c(C)nn(-c2cc(Nc3c(C)c(-c4ccc(C#N)cc4)nn3C)ncn2)c1C (single isomer, unassigned) [Example 339, 4-{5-[(6-{4-[1-methoxyethyl]-3,5-dimethyl-1H-pyrazol-1-yl}pyrimidin-4-yl)amino]-1,4-dimethyl-1H-pyrazol-3-yl}benzonitrile]
The IC50 of the first is 4-fold lower: 2 nM for the first, 8 nM for the second.

Compared with `CCOC(=O)c1c(C)nn(-c2cc(Nc3c(CC)c(-c4ccc(F)cc4)nn3CC(F)F)ncn2)c1C` [Example 180, ethyl 1-(6-{[1-(2,2-difluoroethyl)-4-ethyl-3-(4-fluorophenyl)-1H-pyrazol-5-yl]amino}pyrimidin-4-yl)-3,5-dimethyl-1H-pyrazole-4-carboxylate], `CCOC(=O)c1c(C)nn(-c2cc(Nc3[nH]nc(-c4ccc(F)cc4)c3C3CC3)ncn2)c1C` [Example 15, ethyl 1-(6-{[4-cyclopropyl-3-(4-fluorophenyl)-1H-pyrazol-5-yl]amino}pyrimidin-4-yl)-3,5-dimethyl-1H-pyrazole-4-carboxylate] is 1.5-fold higher in IC50: 47 nM for the first, 72 nM for the second. The first is the more potent here.

Compared with `Cc1cc(C(F)F)n(-c2cc(Nc3c(C)c(-c4ccc(Cl)cc4)nn3CC3CC3)ncn2)n1` [Example 313, N-[3-(4-chlorophenyl)-1-(cyclopropylmethyl)-4-methyl-1H-pyrazol-5-yl]-6-[5-(difluoromethyl)-3-methyl-1H-pyrazol-1-yl]pyrimidin-4-amine], `Cc1cc(C(F)F)n(-c2cc(Nc3c(C)c(-c4ccc(C(F)(F)F)cc4)nn3CC3CC3)ncn2)n1` [Example 307, N-{1-(cyclopropylmethyl)-4-methyl-3-[4-(trifluoromethyl)phenyl]-1H-pyrazol-5-yl}-6-[5-(difluoromethyl)-3-methyl-1H-pyrazol-1-yl]pyrimidin-4-amine] is 16-fold higher in IC50: 36 nM for the first, 560 nM for the second. The first is the more potent here.

Going from `CCOC(=O)c1cc(C)nn1-c1cc(Nc2c(C)c(-c3ccc(C#N)cc3)nn2CC2CC2)ncn1` [Example 258, ethyl 1-(6-{[3-(4-cyanophenyl)-1-(cyclopropylmethyl)-4-methyl-1H-pyrazol-5-yl]amino}pyrimidin-4-yl)-3-methyl-1H-pyrazole-5-carboxylate] to `COc1ccc(-c2nn(CC3CC3)c(Nc3cc(-n4nc(C)c(Cl)c4C)ncn3)c2C)cc1` [Example 482, 6-(4-chloro-3,5-dimethyl-1H-pyrazol-1-yl)-N-[1-(cyclopropylmethyl)-3-(4-methoxyphenyl)-4-methyl-1H-pyrazol-5-yl]pyrimidin-4-amine], the IC50 falls from 2800 nM to 52 nM (54-fold). The second is the more potent here.

First: Cc1cc(C(F)F)n(-c2cc(Nc3nn(C)c(-c4ccc(F)cc4)c3C3CC3)ncn2)n1 [Example 95, N-[4-cyclopropyl-5-(4-fluorophenyl)-1-methyl-1H-pyrazol-3-yl]-6-[5-(difluoromethyl)-3-methyl-1H-pyrazol-1-yl]pyrimidin-4-amine]
Second: Cc1cc(C)n(-c2cc(Nc3n[nH]c(-c4ccc(F)cc4)c3C3CC3)ncn2)n1 [Example 7, N-[4-cyclopropyl-5-(4-fluorophenyl)-1H-pyrazol-3-yl]-6-(3,5-dimethyl-1H-pyrazol-1-yl)pyrimidin-4-amine]
The IC50 of the first is 1.8-fold higher: 63.5 nM for the first, 36 nM for the second. The second is the more potent here.

Compared with `Cc1cc(C)n(-c2cc(Nc3n[nH]c(-c4ccc(F)cc4)c3C)ncn2)n1` [Example 17, 6-(3,5-dimethyl-1H-pyrazol-1-yl)-N-[5-(4-fluorophenyl)-4-methyl-1H-pyrazol-3-yl]pyrimidin-4-amine], `Cc1nn(-c2cc(Nc3c(C)c(-c4ccc(F)cc4)nn3CC3CC3)ncn2)c(C)c1C(O)(C(F)(F)F)C(F)(F)F` [Example 295, 2-[1-(6-{[1-(cyclopropylmethyl)-3-(4-fluorophenyl)-4-methyl-1H-pyrazol-5-yl]amino}pyrimidin-4-yl)-3,5-dimethyl-1H-pyrazol-4-yl]-1,1,1,3,3,3-hexafluoropropan-2-ol] is 7.7-fold lower in IC50: 100 nM for the first, 13 nM for the second.

`CCOC(=O)c1c(C)nn(-c2cc(Nc3c(C)c(-c4ccc(F)cn4)nn3CC3CC3)ncn2)c1C` [Example 438, ethyl 1-(6-{[1-(cyclopropylmethyl)-3-(5-fluoropyridin-2-yl)-4-methyl-1H-pyrazol-5-yl]amino}pyrimidin-4-yl)-3,5-dimethyl-1H-pyrazole-4-carboxylate] was tested, and the IC50 was 16 nM.
